Reference: US8802597B2, “Herbicidal pyrimidines” (E I du Pont de Nemours and Company, priority 2003, dated 2014)

Legend:
Assay type in all cases: in vivo
[1] = tested on: pigweed (Amaranthus retroflexus); assay: Test D pre/postemergence; conditions: scale 0 to 100 (100 = complete control)
Procedure, shortened: (§1)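 Visual injury score, 0–100 (0 = no effect, 100 = complete control), vs untreated controls after 15–25 d in controlled environment. Pre- and postemergence treatments run in parallel; postemergence at 1–4 leaf, 2–18 cm. Compounds in non-phytotoxic solvent with surfactant.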

[2] = tested on: wild mustard (Sinapis arvensis); assay: Test D pre/postemergence; conditions: scale 0 to 100 (100 = complete control)
Procedure, shortened: as §1

[3] = tested on: catchweed bedstraw (galium; Galium aparine); assay: Test D pre/postemergence; conditions: scale 0 to 100 (100 = complete control)
Procedure, shortened: as §1

[4] = tested on: Russian thistle (Salsola kali); assay: Test D pre/postemergence; conditions: scale 0 to 100 (100 = complete control)
Procedure, shortened: as §1

kochia (Kochia scoparia) = assay: Test D pre/postemergence; conditions: scale 0 to 100 (100 = complete control)
Procedure, shortened: as §1

[5] = tested on: wheat (Triticum aestivum); assay: Test D pre/postemergence; conditions: scale 0 to 100 (100 = complete control)
Procedure, shortened: as §1

[6] = tested on: wild buckwheat (Polygonum convolvulus); assay: Test D pre/postemergence; conditions: scale 0 to 100 (100 = complete control)
Procedure, shortened: as §1

[7] = tested on: lambsquarters (Chenopodium album); assay: Test D pre/postemergence; conditions: scale 0 to 100 (100 = complete control)
Procedure, shortened: as §1

[8] = tested on: common chickweed (Stellaria media); assay: Test D pre/postemergence; conditions: scale 0 to 100 (100 = complete control)
Procedure, shortened: as §1

[9] = tested on: field bindweed (Convolvulus arvensis); assay: Test G pre/postemergence; conditions: Preemergence
From the text: (§2) Seeds or nutlets of plant species selected from bermudagrass (Cynodon dactylon), Surinam grass (Brachiaria decumbens), large crabgrass (Digitaria sanguinalis), green foxtail (Setaria viridis), goosegrass (Eleusine indica), johnsongrass (Sorghum halepense), kochia (Kochia scoparia), pitted morningglory (Ipomoea lacunosa), purple nutsedge (Cyperus rotundus), common ragweed (Ambrosia elatior), black mustard (Brassica nigra), guineagrass (Panicum maximum), dallisgrass (Paspalum dilatatum), barnyardgrass (Echinochloa crus-galli), southern sandbur (Cenchrus echinatus), common sowthistle (Sonchus oleraceous), prickly sida (Sida spinosa), Italian ryegrass (Lolium multiflorum), common purslane (Portulaca oleracea), broadleaf signalgrass (Brachiaria platyphylla), common groundsel (Senecio vulgaris), common chickweed (Stellaria media), tropical spiderwort (Commelina benghalensis), annual bluegrass (Poa annua), downy bromegrass (Bromus tectorum), itchgrass (Rottboellia cochinchinensis), quackgrass (Elytrigia repens), Canada horseweed (Conyza canadensis), field bindweed (Convolvulus arvensis), spanishneedles (Bidens bipinnata), common mallow (Malva sylvestris), and Russian thistle (Salsola kali) were planted and treated preemergence with test chemicals formulated in a non-phytotoxic solvent mixture which included a surfactant.
(§3) At the same time, plants selected from these weed species were treated with postemergence applications of some of the test chemicals formulated in the same manner. Plants ranged in height from 2 to 18 cm (1- to 4-leaf stage) for postemergence treatments. Treated plants and controls were maintained in a greenhouse for 12 to 21 days, after which time all species were compared to controls and visually evaluated.
(§4) Plant response ratings, summarized in Table G, are based on a scale of 0 to 100 where 0 is no effect and 100 is complete control. A dash (-) response means no test result.

[10] = tested on: southern sandbur (Cenchrus echinatus); assay: Test G pre/postemergence; conditions: Preemergence
From the text: as §2, §3, §4

[11] = tested on: itchgrass (Rottboellia cochinchinensis); assay: Test G pre/postemergence; conditions: Preemergence
From the text: as §2, §3, §4

[12] = tested on: green foxtail (Setaria viridis); assay: Test G pre/postemergence; conditions: Preemergence
From the text: as §2, §3, §4

COC(=O)c1nc(C2CC2)nc(N)c1Cl [Compound 9, methyl 6-amino-5-chloro-2-cyclopropyl-4-pyrimidinecarboxylate]
Plant response rating, Pigweed ([1]; Postemergence, 16 g ai/ha): 65 | Plant response rating, Pigweed ([1]; Postemergence, 31 g ai/ha): 100 | Plant response rating, Pigweed ([1]; Postemergence, 62 g ai/ha): 100 | Plant response rating, Pigweed ([1]; Postemergence, 125 g ai/ha): 100 | Plant response rating, Pigweed ([1]; Preemergence, 16 g ai/ha): 65 | Plant response rating, Pigweed ([1]; Preemergence, 31 g ai/ha): 80 | Plant response rating, Pigweed ([1]; Preemergence, 62 g ai/ha): 100 | Plant response rating, Pigweed ([1]; Preemergence, 125 g ai/ha): 100 | Plant response rating, Mustard, Wild ([2]; Postemergence, 16 g ai/ha): 65 | Plant response rating, Mustard, Wild ([2]; Postemergence, 31 g ai/ha): 80 | Plant response rating, Mustard, Wild ([2]; Postemergence, 62 g ai/ha): 80 | Plant response rating, Mustard, Wild ([2]; Postemergence, 125 g ai/ha): 95 | Plant response rating, Mustard, Wild ([2]; Preemergence, 16 g ai/ha): 60 | Plant response rating, Mustard, Wild ([2]; Preemergence, 31 g ai/ha): 70 | Plant response rating, Mustard, Wild ([2]; Preemergence, 62 g ai/ha): 85 | Plant response rating, Mustard, Wild ([2]; Preemergence, 125 g ai/ha): 85 | Plant response rating, Galium ([3]; Postemergence, 16 g ai/ha): 100 | Plant response rating, Galium ([3]; Postemergence, 31 g ai/ha): 100 | Plant response rating, Galium ([3]; Postemergence, 62 g ai/ha): 100 | Plant response rating, Galium ([3]; Postemergence, 125 g ai/ha): 100 | Plant response rating, Galium ([3]; Preemergence, 16 g ai/ha): 85 | Plant response rating, Galium ([3]; Preemergence, 31 g ai/ha): 100 | Plant response rating, Galium ([3]; Preemergence, 62 g ai/ha): 100 | Plant response rating, Galium ([3]; Preemergence, 125 g ai/ha): 100 | Plant response rating, Russian Thistle ([4]; Postemergence, 16 g ai/ha): 65 | Plant response rating, Russian Thistle ([4]; Postemergence, 31 g ai/ha): 90 | Plant response rating, Russian Thistle ([4]; Postemergence, 62 g ai/ha): 100 | Plant response rating, Russian Thistle ([4]; Postemergence, 125 g ai/ha): 100 | Plant response rating, Russian Thistle ([4]; Preemergence, 16 g ai/ha): 100 | Plant response rating, Russian Thistle ([4]; Preemergence, 31 g ai/ha): 100 | Plant response rating, Russian Thistle ([4]; Preemergence, 62 g ai/ha): 100 | Plant response rating, Russian Thistle ([4]; Preemergence, 125 g ai/ha): 100 | Plant response rating, Kochia (kochia (Kochia scoparia); Postemergence, 16 g ai/ha): 85 | Plant response rating, Kochia (kochia (Kochia scoparia); Postemergence, 31 g ai/ha): 100 | Plant response rating, Kochia (kochia (Kochia scoparia); Postemergence, 62 g ai/ha): 100 | Plant response rating, Kochia (kochia (Kochia scoparia); Postemergence, 125 g ai/ha): 100 | Plant response rating, Kochia (kochia (Kochia scoparia); Preemergence, 16 g ai/ha): 70 | Plant response rating, Kochia (kochia (Kochia scoparia); Preemergence, 31 g ai/ha): 98 | Plant response rating, Kochia (kochia (Kochia scoparia); Preemergence, 62 g ai/ha): 100 | Plant response rating, Kochia (kochia (Kochia scoparia); Preemergence, 125 g ai/ha): 100 | Plant response rating, Wheat ([5]; Postemergence, 16 g ai/ha): 50 | Plant response rating, Wheat ([5]; Postemergence, 31 g ai/ha): 80 | Plant response rating, Wheat ([5]; Postemergence, 62 g ai/ha): 90 | Plant response rating, Wheat ([5]; Postemergence, 125 g ai/ha): 100 | Plant response rating, Wheat ([5]; Preemergence, 16 g ai/ha): 60 | Plant response rating, Wheat ([5]; Preemergence, 31 g ai/ha): 75 | Plant response rating, Wheat ([5]; Preemergence, 62 g ai/ha): 75 | Plant response rating, Buckwheat, Wild ([6]; Postemergence, 16 g ai/ha): 65 | Plant response rating, Buckwheat, Wild ([6]; Postemergence, 31 g ai/ha): 80 | Plant response rating, Buckwheat, Wild ([6]; Postemergence, 62 g ai/ha): 100 | Plant response rating, Buckwheat, Wild ([6]; Postemergence, 125 g ai/ha): 100 | Plant response rating, Buckwheat, Wild ([6]; Preemergence, 16 g ai/ha): 60 | Plant response rating, Buckwheat, Wild ([6]; Preemergence, 31 g ai/ha): 85 | Plant response rating, Buckwheat, Wild ([6]; Preemergence, 62 g ai/ha): 100 | Plant response rating, Buckwheat, Wild ([6]; Preemergence, 125 g ai/ha): 100 | Plant response rating, Lambsquarters ([7]; Postemergence, 16 g ai/ha): 95 | Plant response rating, Lambsquarters ([7]; Postemergence, 31 g ai/ha): 100 | Plant response rating, Lambsquarters ([7]; Postemergence, 62 g ai/ha): 100 | Plant response rating, Lambsquarters ([7]; Postemergence, 125 g ai/ha): 100 | Plant response rating, Lambsquarters ([7]; Preemergence, 16 g ai/ha): 65 | Plant response rating, Lambsquarters ([7]; Preemergence, 31 g ai/ha): 100 | Plant response rating, Lambsquarters ([7]; Preemergence, 62 g ai/ha): 100 | Plant response rating, Lambsquarters ([7]; Preemergence, 125 g ai/ha): 100 | Plant response rating, Chickweed ([8]; Postemergence, 16 g ai/ha): 60 | Plant response rating, Chickweed ([8]; Postemergence, 31 g ai/ha): 100 | Plant response rating, Chickweed ([8]; Postemergence, 62 g ai/ha): 100 | Plant response rating, Chickweed ([8]; Postemergence, 125 g ai/ha): 100 | Plant response rating, Chickweed ([8]; Preemergence, 16 g ai/ha): 65 | Plant response rating, Chickweed ([8]; Preemergence, 31 g ai/ha): 95 | Plant response rating, Chickweed ([8]; Preemergence, 62 g ai/ha): 100 | Plant response rating, Chickweed ([8]; Preemergence, 125 g ai/ha): 100 | Plant response rating, Bindweed, Field ([9]; 62 g ai/ha, scale 0-100): 95 | Plant response rating, Bindweed, Field ([9]; 125 g ai/ha, scale 0-100): 100 | Plant response rating, Bindweed, Field ([9]; 250 g ai/ha, scale 0-100): 100 | Plant response rating, Bindweed, Field ([9]; 500 g ai/ha, scale 0 to 100): 100 | Plant response rating, Sandbur ([10]; 125 g ai/ha, scale 0-100): 80 | Plant response rating, Sandbur ([10]; 250 g ai/ha, scale 0-100): 90 | Plant response rating, Sandbur ([10]; 500 g ai/ha, scale 0 to 100): 95 | Plant response rating, Itchgrass ([11]; 62 g ai/ha, scale 0-100): 30 | Plant response rating, Itchgrass ([11]; 125 g ai/ha, scale 0-100): 60 | Plant response rating, Itchgrass ([11]; 250 g ai/ha, scale 0-100): 80 | Plant response rating, Itchgrass ([11]; 500 g ai/ha, scale 0 to 100): 85 | Plant response rating, Foxtail, Green ([12]; 62 g ai/ha, scale 0-100): 20 | Plant response rating, Foxtail, Green ([12]; 125 g ai/ha, scale 0-100): 85 | Plant response rating, Foxtail, Green ([12]; 250 g ai/ha, scale 0-100): 100 | Plant response rating, Foxtail, Green ([12]; 500 g ai/ha, scale 0 to 100): 100
